Measured values as given in patent US12144792B2, “Therapeutic agents for neurodegenerative diseases” (priority 2016, dated 2024).

How the values were obtained:
[1] = tested on: Npc1^−/− mice; assay: Gait analysis (CatWalk); assay type: in vivo, mouse; settings: 0.1 g/kg from weaning, eight weeks of age, vs untreated littermates
Description: Separate groups of Npc1^−/− and Npc1^+/+ mice were left untreated, as controls. Gait analysis was performed on mice at eight weeks of age using a CatWalk® 15.0 system according to manufacturer's instructions (Noldus, Nottingham, UK). Five runs were recorded per animal. CatWalk® parameters measured were: • 1. Stand Mean: average duration (s) of paws in contact with glass plate; • 2. Step Cycle: duration (s) between two consecutive contacts of the same paw; • 3. Duty Cycle: percentage of time paws in contact with plate compared with time to complete a step cycle; • 4. Step Sequence (AB): percentage of time spent walking in LF-RH-RF-LH alternating pattern (LF: left front; RH: right hind; RF: right front; LH left hind); • 5. Cadence: step per seconds in a trial; • 6. Diagonal Support: percentage of time with simultaneous contact of diagonal paws with the glass plate (RF&LH or RH&LF). Motor Function Analysis

[2] = tested on: patient with downbeat nystagmus; assay: Gait analysis; assay type: in vivo, human; settings: Ex. 12 Patient 2
Text: Medication was then suspended. About one month after stopping acetyl-DL-leucine treatment, the patient's symptomatology worsened.

[3] = tested on: NPC patients; assay: Clinical severity score (CSS) and annual severity increment score (ASIS); assay type: in vivo, human; settings: ten NPC patients, 4.5 g/day
Text: An NPC patient's severity may be quantified by assigning a clinical severity score (CSS), which assesses various parameters of the disease and gives each parameter a score out of 5 (higher score=greater severity). See Yanjanin et al., “Linear Clinical Progression, Independent of Age of Onset, in Niemann-Pick Disease, Type C,” Am J Med Genet Part B 153B:132-140. In an untreated patient, one can typically predict how the CSS will change over time in an individual, as disease progression appears to be linear. For example, if Patient A moves from a CSS of 8 to a CSS of 12 between month 0 and month 12, it can be predicted that by month 36, the patient will have a CSS of 20. The annual severity increment score (ASIS) quantities the annual rate of change in the CSS, calculated by dividing the CSS of a patient by the patient's age. […]
Ten NPC patients were administered acetyl-leucine at 4.5 g/day over long durations. A CSS was determined at baseline, and at various time points, for eye movement, ambulation, speech, swallow, fine motor skills, cognition, memory, and seizures. An overall CSS was calculated at baseline and at each such time point by adding the individual CSS values for each parameter (eye movement, ambulation, etc.).
The ASIS at baseline and each time point was calculated using each patient's CSS and age at the time of assessment. […]

[4] = tested on: patients with downbeat nystagmus; assay: Case studies, clinical examination (visual acuity, posturography); assay type: in vivo, human
Text: The patient was diagnosed with downbeat nystagmus: the patient was severely impaired by blurred vision (oscillopsia) due to the nystagmus, and experienced difficulties while reading and writing. The patient's visual acuity was: right 0.75, left 0.67, binocular 0.83, and the downbeat nystagmus was documented by video-oculography. […] […] […] The patient was able to suppress the nystagmus by visual fixation. In addition, the patient's spatial orientation was improved.

[5] = tested on: Mucopolysaccharidosis Type IIIB (MPS IIIB) patient fibroblasts; assay: Lysosomal volume via LysoTracker; assay type: cell-based, human; settings: 1 mM, 6 days, vs untreated
[6] = tested on: Aspartylglucosaminuria patient fibroblasts; assay: Lysosomal volume via LysoTracker; assay type: cell-based, human; settings: 1 mM, 6 days, vs untreated
[7] = tested on: Npc1^−/− mouse; assay: Lifespan; assay type: in vivo; settings: 0.1 g/kg from 3 weeks of age
Text: Separate groups of Npc1^−/− and Npc1^+/+ mice were left untreated, as controls.

[8] = tested on: Hexb^−/− mouse (Sandhoff disease model); assay: Lifespan of Sandhoff mouse; assay type: in vivo; settings: 0.1 g/kg from 3 weeks of age, p<0.05 vs untreated
Description: This study made use of a mouse model of Sandhoff disease, the Hexb^−/− mouse, as described in Jeyakumar et al. (Jeyakumar, M. et al. (1999) Proc. Natl. Acad. Sci. USA 96: 6388-6393).
In FIG. 7A, acetyl-leucine-treated mice were treated with 0.1 g/kg acetyl-leucine from 3 weeks of age. The asterisks (*) indicates a p-value of <0.05 vs untreated Sandhoff mice. Data is average of n=6 mice per group. Without treatment, the median survival time of Sandhoff mice was 112 days. Treatment with acetyl-leucine (0.1 g/kg body weight since 3 weeks of age) increased the median lifespan to 120 days.

[9] = tested on: patient with Lewy Body dementia; assay: Case study, clinical evaluation; assay type: in vivo, human; settings: Ex. 17, Lewy Body dementia; 3 g/day one week, 5 g/day thereafter; after four weeks
Description: The patient started taking acetyl-leucine (3 g/day for one week; 5 g/day thereafter) and was evaluated after four weeks. […] Medication was reduced to 3 g/day, and the patient was instructed to stop medication about two weeks later.

[10] = tested on: fibroblast cell line from an NPC patient; assay: Lysosomal volume via LysoTracker; assay type: cell-based, human; settings: fibroblasts from NPC patient of mild clinical severity; 1 mM
Description: A fibroblast cell line from an NPC patient was treated for 3 days with N-acetyl-DL-leucine (1 mM) and relative lysosomal volume was quantified via LysoTracker, a fluorescent dye that accumulates in acidic organelles. Increased LysoTracker fluorescence is indicative of an increase in lysosomal size and/or number, and is a hallmark of NPC cells.

[11] = tested on: microtubule-associated protein 1A/1B-light chain 3-phosphatidylethanolamine conjugate (LC3-II); assay: LC3-II levels relative to tubulin loading control; assay type: in vivo, mouse; settings: NPC1−/− mice, 0.1 g/kg body weight daily from 3 weeks of age; sacrificed at 8 weeks
Description: The Niemann-Pick Disease Type C (NPC) mouse model shares a number of pathological features with Alzheimer's disease (AD) as described herein. […] Mice were sacrificed at 8 weeks of age. Levels of amyloid precursor protein C-terminal fragments (APP-CTFs) were evaluated relative to total amyloid precursor protein (APP) levels in the cerebellum for wild type, untreated wild type NPC1^−/− mice, and AL-treated wild type NPC1^−/− mice. Levels of microtubule-associated protein 1A/1B-light chain 3-phosphatidylethanolamine conjugate (LC3-II) were also evaluated relative to levels of tubulin loading control for wild type, untreated wild type NPC1^−/− mice, and AL-treated wild type NPC1^−/− mice.

[12] = Ex. 12 Patient 1, approximately 14 weeks after starting

CC(=O)NC(CC(C)C)C(=O)O (racemic) [acetyl-DL-leucine]
gait properties [1]: significantly improved gait | self-chosen velocity ([2]; about one month after stopping treatment, decrease from 85): 72 cm/s | self-chosen velocity ([2]; on treatment, increase from 56): 85 cm/s | change of ASIS relative to baseline [3]: all ten patients showed a reduction in ASIS | change of overall CSS over the course of the experiment [3]: none of the ten patients showed an overall increase in CSS | patient-reported benefit ([4]; Ex. 12 Patient 1, downbeat nystagmus, 3 then 5 gram per day, after 10 days): significant benefit | nystagmus, clinical examination by two independent examiners [4, 12]: reduction of the nystagmus | posturography [4, 12]: reduction of postural sway | side-effects ([4]; Ex. 12 Patient 1, continued treatment at 5 gram per day): no side-effects resulted | symptoms ([4]; Ex. 12 Patient 2, downbeat nystagmus, 3 g/day first week, 5 g/day thereafter): improvement of gait | LysoTracker fluorescence (lysosomal volume) [5]: statistically significant reduction in LysoTracker fluorescence | LysoTracker fluorescence (lysosomal volume) [6]: trend in reducing LysoTracker fluorescence | lifespan [7]: small but statistically significant increase in lifespan | lifespan [8]: statistically significant increase in the lifespan | patient-reported symptoms [9]: increased fatigue and a deterioration of balance and speech | LysoTracker fluorescence (lysosomal volume) [10]: significant decrease in LysoTracker fluorescence | LC3-II levels relative to tubulin [11]: lowering of LC3-II
